{"source": "paper PMC6597546", "about": "“Identification of a potent benzoxaborole drug candidate for treating cryptosporidiosis” (Nature Communications, 2019)", "key": {"[1]": {"tested_on": "C. parvum (University of Arizona Iowa isolate)", "type": "in vivo, C57BL/6 IFN-γ−/− mice", "description": "Interferon gamma (IFN-γ) knockout mice were used to model acute Cryptosporidium infection. All IFN-γ knockout mouse studies were performed in compliance with animal care guidelines and were approved by the Explora BioLabs (San Diego, CA) Institutional Animal Care and Use Committee. Four-week-old female C57BL/6 IFN-γ^−/− mice with normal flora were purchased from The Jackson laboratory and acclimated for 3 days prior to infection by oral gavage with ∼10^6 C. parvum Iowa isolate oocysts (Sterling Laboratory, University of Arizona) suspended in sterile distilled water. At the indicated times following infection, mice were treated with compound vehicle alone, clofazimine (positive control), or once daily AN7973 at the indicated doses. Fecal parasite shedding was measured by isolating oocysts using sucrose gradient centrifugation. Sheather’s sucrose solution was freshly prepared by dissolving 156.25 g sucrose and 2.5 mL phenol in 100 mL water. Two sucrose solutions were prepared: (A) specific gravity of 1.103 (33% Sheather’s and 0.1% Tween 80 in PBS) and (B) specific gravity of 1.064 (20% Sheather’s and 0.1% Tween 80 in PBS). In a 2 mL microfuge tube, a gradient was prepared by laying 0.75 mL of solution A, then carefully laying 0.75 mL of solution B, slowly as to prevent mixing of the two layers. Fecal pellets were removed from storage, and homogenized by vortexing and pipetting. 0.2 mL fecal homogenate was overlaid on top of gradient in each microfuge tube. Oocysts were floated from feces by centrifugation at 1000 × g for 20 min and collected with a pipet tip from the 1.064/1.103 specific gravity interface between solutions A and B. Oocysts were rinsed once in cold PBS, pelleted by centrifugation at 15,000 × g for 10 min, and resuspended in PBS. Isolated oocysts were then stained with a fluorescein isothiocyanate-conjugated mouse anti-Cryptosporidium antibody (Bio-Rad catalog# 2402-3007 F; 0.25 µg per sample) and quantified using a Guava EasyCyte flow cytometer and CytoSoft data acquisition software (version 5.3; Guava Technologies, Inc.). Oocysts per milliliter of sample were normalized to counts per milligram of feces."}, "[2]": {"tested_on": "C. parvum (Bunch Grass Farms Iowa isolate)", "parameters": "method as in PMID 29339392", "conditions": "cited from earlier work"}}, "note": "Values joined by “and” are separate entries in the source; they are usually repeats but may differ in a detail not shown here. Identical values can stand only once. Like-named read-outs stand apart in the source and are kept apart here."}
{"molecule": "CC(C)/N=c1\\cc2n(-c3ccc(Cl)cc3)c3ccccc3nc-2cc1Nc1ccc(Cl)cc1", "note": "[Clofazimine, clofazimine, reference compound]", "values": [{"measurement": "fecal oocyst shedding, individual mice", "setting": "[1]; 10 mg/kg QD from day 4, day p.i. 14", "result": "15 (2×) and 18 and 16"}, {"measurement": "fecal oocyst shedding, individual mice", "setting": "[1]; 25 mg/kg QD from day 4, day p.i. 8", "result": "10 and 8 (2×) and 9"}, {"measurement": "efficacy against Cryptosporidium in the NSG mouse", "setting": "[2]", "result": "lacks efficacy"}]}
